Laboratory results: patent US8362203B2, “Non-natural peptides as models for the development of antibiotics” (priority 2009, dated 2013)

Key:
[1] = system: E. coli helix 31 hairpin RNA (ECh31WT); experiment: Circular dichroism titration of helix 31 RNA with peptide; assay type: binding; conditions: 0.5 μM h31, 100 mM NaCl, 10 mM sodium phosphate, 0.1 mM Na2EDTA, pH 7; CD at 270 nm; read-out: apparent KD (circular dichroism)
Procedure: Binding studies with CD. The titration was performed by adding increasing concentrations of peptide (10-80 μM) to 1 mL of 0.5 μM ECh31WT RNA in 10 mM sodium phoshate, 100 mM NaCl, 0.1 mM Na2EDTA at pH 7, and incubated for 2 min for each concentration point followed by spectrum scanning. Prior to titration, the RNA was renatured as described in Chapter 3, Section 3.2.2. RNA-peptide binding was determined by observing CD changes at 270 nm upon addition of peptide to the sample. The CD at 270 nm was converted to a fraction bound ratio and the dissociation constant (KD) of RNA-peptide binding was determined by curve fitting using the Kaleidagraph™ 3.0 program, as described in Chapter 3, Section 3.2.4.
Circular dichroism studies. CD was employed to assess the conformational changes in helix 31 upon binding of the peptide. […] Conformational changes in helix 31 measured by circular dichroism spectroscopy was performed in 100 mM NaCl, 10 mM sodium phosphate, and 0.1 mM Na2EDTA at pH 7. […] The dissociation constant (KD) of RNA-peptide binding was determined by plotting Fr versus peptide concentration, and by curve fitting to Equation, Fr=[P]^n/([P]^n+KD^n) where [P] is the peptide concentration, n is the Hill coefficient, and KD is the apparent dissociation constant (FIG. 56B). […]

[2] = system: E. coli h31 RNA (ECh31WT); experiment: SPR kinetic analysis of binding to immobilized biotinylated helix 31 RNA
Procedure: SPR methods. All immobilization and subsequent binding studies were performed using a BIAcore 2000 instrument set at a temperature of 25° C. Standard dextran surface BIAcore sensorchips (Sensor chip CM5) were purchased from BIAcore. Standard desorb and sanitize routines were performed according to the BIAcore guidelines before docking a new CM5 sensor chip. All buffers were filtered through sterile 0.2 μm nylon membranes (Millipore™) under vacuum. Before derivatizing the flow cells with streptavidin, the CM5 sensor chip was pre-conditioned using three successive 10 μl injections of chip-preparation solution (10 mM NaOH, 500 mM NaCl) at 100 μl/min, followed by a normalization routine using BIAnormalizing solution (40% glycerol). Streptavidin derivatization was performed as described in Chapter 3. Prior to immobilization, the solution of biotinylated RNA in HBS-EP buffer (10 mM HEPES, 3 mM EDTA, 150 mM NaCl, 0.005% P20 at pH 7.4) was renatured by heating to 90° C. for 2 min followed by placing on ice. Flow cells were functionalized by injecting 30 μl of RNA at a time using the MANUAL INJECT command at a flow rate of 10 μl/min, until the desired immobilization level is reached. One of the flow cells was used to immobilize RNA (typically FC4), while another one adjacent to it (FC3) remained unmodified to serve as a blank-control for matrix effects. Levels of RNA captured were calculated by subtracting […] for each flow cell. After RNA immobilization, FC3 and FC4 were blocked with 100 μL of 1 mg/mL biotin at 5 μL/min.
Peptide samples were prepared by serial dilutions from stock solutions into micro-centrifuge tubes. Dilutions are made by the same running buffer to avoid buffer mismatches. […]
Biotinylated helix 31 RNA was immobilized onto a streptavidin-coated CM5 chip and differing concentrations of 17 (TYLPWPA)-GFP (“TYLPWPA” disclosed as SEQ ID NO: 2) were injected as the analyte. […] Finally, the apparent dissociation constants were determined under optimized conditions. […]

[3] = system: E. coli helix 31 hairpin RNA (ECh31WT); experiment: Fluorescence titration of 5′-fluorescein-labeled helix 31 RNA with peptide; assay type: binding; conditions: 0.5 μM h31, 10 mM HEPES, 50 mM NaCl, 1 mM Na2EDTA, pH 7.5, 25° C.; hyperbolic curve fitting; read-out: apparent KD (fluorescence)
Procedure: Fluorescence methods. Fluorescence measurements were taken on a RF-5301PC spectrofluorometer (Shimadzu) at 25° C. using a 1 cm path-length quartz fluorometer cell. The emission spectra were acquired by scanning between 500 and 600 nm with an excitation wavelength of 494 nm, slit widths of 3 nm for excitation and emission. The fluorescent titrations were performed by adding increasing concentrations of peptide (5-150 μM) to 350 μl of 0.5 μM 5′-fluorescein-labeled helix 31 RNA in HEPES buffer (10 mM HEPES, 50 mM NaCl, 1 mM Na2EDTA at pH 7.5) and incubated for 2 min for each concentration point followed by spectrum scanning. […] RNA-peptide binding was determined by quenching of the fluorescence intensity upon addition of peptide to the sample. The fluorescence intensity at 523 nm was converted to a fraction bound ratio and the dissociation constant (KD) of RNA-peptide binding was determined by curve fitting using the Kaleidagraph™ 3.0 program, as described in Chapter 3, Section 3.5.3
Fluorescence titration assay. […] In this experiment, the fluorescence intensity decreased upon increases in the peptide concentration (FIG. 54); however, the percent change in the observed fluorescence intensity was fairly small (7%). […]
The relatively poor fits may be a result of the fact that the fluorescence changes are quite small leading to greater error. […]

## TYLPWPA [peptide 17, 7-mer peptide selected by phage display against helix 31 RNA]
[1]
  Kd: 28 ± 10 µM
[2]
  affinity for helix 31 RNA (in words): moderate affinity
[2]; Langmuir 1:1 model, same running buffer, pH 7.5, 50 μL/min
  KD (SPR, kd/ka): 28 ± 1 µM
[2]; peptide without GFP
  SPR response due to binding, free peptide as analyte: negligible responses
[3]
  Kd: 27 ± 4 µM
